Experimental data published in PubChem BioAssay (NCI).
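Grown in 96-well plates, cells were treated for 48 hours with each compound at five concentrations. Insufficient inhibition: endpoint recorded as highest concentration tested. Here, GI50 denotes the concentration required for 50% inhibition of growth. TGI is the concentration that stops growth completely.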

What was measured:
Assay in all cases: NCI-60 cell line screen, 48 h
[1] = test system: CCRF-CEM leukemia
[2] = test system: ACHN renal
[3] = test system: HOP-62 NSCLC
[4] = test system: MCF7 breast
[5] = test system: NCI-H226 lung
[6] = test system: HCT-116 colon
[7] = test system: HL-60(TB) leukemia
[8] = test system: HT29 colon
[9] = test system: MDA-MB-435
[10] = test system: PC-3 prostate
[11] = test system: A549 NSCLC
[12] = test system: BT-549 breast
[13] = test system: COLO 205 colon
[14] = test system: SNB-19 CNS
[15] = test system: 786-0 renal
[16] = test system: OVCAR-5 ovarian
[17] = test system: SF-268 CNS
[18] = test system: HCC-2998 colon
[19] = test system: MDA-MB-231 breast
[20] = test system: SK-MEL-28 melanoma
[21] = test system: NCI-H460 lung
[22] = test system: UACC-257 melanoma
[23] = test system: SNB-75 CNS
[24] = test system: OVCAR-4 ovarian
[25] = test system: SW-620 colon
[26] = test system: SK-MEL-5 melanoma
[27] = test system: SF-539 CNS
[28] = test system: IGROV1 ovarian
[29] = test system: HS 578T breast
[30] = test system: TK-10 renal
[31] = test system: HOP-92 NSCLC
[32] = test system: U251 CNS
[33] = test system: KM12 colon
[34] = test system: CAKI-1 renal
[35] = test system: MOLT-4 leukemia
[36] = test system: OVCAR-8 ovarian
[37] = test system: NCI-H522 lung
[38] = test system: SN12C renal
[39] = test system: EKVX NSCLC
[40] = test system: SR leukemia
[41] = test system: T-47D breast
[42] = test system: OVCAR-3 ovarian
[43] = test system: NCI-H23 lung
[44] = test system: A498 renal
[45] = test system: SK-OV-3 ovarian
[46] = test system: MALME-3M melanoma
[47] = test system: LOX IMVI melanoma
[48] = test system: UO-31 renal
[49] = test system: HCT-15 colon
[50] = test system: SF-295 CNS
[51] = test system: M14 melanoma
[52] = test system: DU-145 prostate
[53] = test system: RPMI-8226 leukemia
[54] = test system: K-562 leukemia
[55] = test system: UACC-62 melanoma
[56] = test system: SK-MEL-2 melanoma
[57] = test system: MDA-MB-468 breast
[58] = test system: RXF 393 renal

Compound: COc1cccc(C(N)=Nc2ccc(OCCCCCCCCn3cncn3)cc2)c1
- GI50 [1]: 0.292 µM
- TGI [1]: 10.4 µM
- GI50 [2]: 0.65 µM
- TGI [2]: 39.4 µM
- GI50 [3]: 0.614 µM
- TGI [3]: 18.5 µM
- GI50 [4]: 0.266 µM
- TGI [4]: 15 µM
- GI50 [5]: 0.295 µM
- TGI [5]: 2.05 µM
- GI50 [6]: 0.417 µM
- TGI [6]: 17.1 µM
- GI50 [7]: 0.306 µM
- TGI [7]: 1.08 µM
- GI50 [8]: 0.319 µM
- TGI [8]: 1.42 µM
- GI50 [9]: 0.13 µM
- TGI [9]: 0.378 µM
- GI50 [10]: 0.424 µM
- TGI [10]: > 50.3 µM
- GI50 [11]: 0.581 µM
- TGI [11]: > 100 µM
- GI50 [12]: 0.975 µM
- TGI [12]: 22.3 µM
- GI50 [13]: 0.315 µM
- TGI [13]: 1.09 µM
- GI50 [14]: 0.576 µM
- TGI [14]: > 67.7 µM
- GI50 [15]: 0.812 µM
- TGI [15]: 26.9 µM
- GI50 [16]: 0.493 µM
- TGI [16]: > 45.6 µM
- GI50 [17]: 1.99 µM
- TGI [17]: 42.8 µM
- GI50 [18]: 0.38 µM
- TGI [18]: 3.52 µM
- GI50 [19]: 0.385 µM
- TGI [19]: 4.89 µM
- GI50 [20]: 0.693 µM
- TGI [20]: 24.1 µM
- GI50 [21]: 0.356 µM
- TGI [21]: > 33.5 µM
- GI50 [22]: 2.02 µM
- TGI [22]: 27.8 µM
- GI50 [23]: 0.262 µM
- TGI [23]: > 45.4 µM
- GI50 [24]: 3.18 µM
- TGI [24]: > 100 µM
- GI50 [25]: 0.387 µM
- TGI [25]: > 100 µM
- GI50 [26]: 0.286 µM
- TGI [26]: 1.09 µM
- GI50 [27]: 0.235 µM
- TGI [27]: 0.585 µM
- GI50 [28]: 0.53 µM
- TGI [28]: 21 µM
- GI50 [29]: 0.374 µM
- TGI [29]: 38.9 µM
- GI50 [30]: 0.799 µM
- TGI [30]: > 100 µM
- GI50 [31]: 1.63 µM
- TGI [31]: 30.2 µM
- GI50 [32]: 0.333 µM
- TGI [32]: 4.57 µM
- GI50 [33]: 0.425 µM
- TGI [33]: > 65.5 µM
- GI50 [34]: 0.473 µM
- TGI [34]: 45.4 µM
- GI50 [35]: 0.596 µM
- TGI [35]: > 100 µM
- GI50 [36]: 0.342 µM
- TGI [36]: 2.1 µM
- GI50 [37]: 0.274 µM
- TGI [37]: 1.29 µM
- GI50 [38]: 0.485 µM
- TGI [38]: 14.3 µM
- GI50 [39]: 0.429 µM
- TGI [39]: > 75.2 µM
- GI50 [40]: 0.319 µM
- TGI [40]: > 56.9 µM
- GI50 [41]: 0.426 µM
- TGI [41]: > 72.4 µM
- GI50 [42]: 0.369 µM
- TGI [42]: 25.4 µM
- GI50 [43]: 0.385 µM
- TGI [43]: 15.5 µM
- GI50 [44]: 14.9 µM
- TGI [44]: 59.5 µM
- GI50 [45]: 0.54 µM
- TGI [45]: 49.2 µM
- GI50 [46]: 0.31 µM
- TGI [46]: 17.4 µM
- GI50 [47]: 0.522 µM
- TGI [47]: 11.8 µM
- GI50 [48]: 0.544 µM
- TGI [48]: 19.9 µM
- GI50 [49]: 0.33 µM
- TGI [49]: 12.4 µM
- GI50 [50]: 0.32 µM
- TGI [50]: 11 µM
- GI50 [51]: 0.324 µM
- TGI [51]: 18.9 µM
- GI50 [52]: 0.417 µM
- TGI [52]: 31.5 µM
- GI50 [53]: 0.293 µM
- TGI [53]: 4.87 µM
- GI50 [54]: 0.23 µM
- TGI [54]: > 100 µM
- GI50 [55]: 0.435 µM
- TGI [55]: 17.2 µM

Compound: O=C1Nc2cc(Cl)ccc2/C1=C/c1cccc(OCc2ccccn2)c1
- GI50 [1]: 3.1 µM
- TGI [1]: > 100 µM
- GI50 [2]: 6.07 µM
- TGI [2]: 19.9 µM
- GI50 [3]: 6.95 µM
- TGI [3]: 25 µM
- GI50 [4]: 1.93 µM
- TGI [4]: 11.4 µM
- GI50 [5]: 11.3 µM
- TGI [5]: 70.4 µM
- GI50 [6]: 3.07 µM
- TGI [6]: 10.5 µM
- GI50 [7]: 2.13 µM
- TGI [7]: 5.1 µM
- GI50 [8]: 4.47 µM
- TGI [8]: 19.4 µM
- GI50 [9]: 1.92 µM
- TGI [9]: 4.25 µM
- GI50 [10]: 5.52 µM
- TGI [10]: > 100 µM
- GI50 [11]: 13 µM
- TGI [11]: 62.2 µM
- GI50 [12]: 3.92 µM
- TGI [12]: 16.5 µM
- GI50 [13]: 10.5 µM
- TGI [13]: 22.2 µM
- GI50 [14]: 11 µM
- TGI [14]: 27.8 µM
- GI50 [15]: 14 µM
- TGI [15]: 28.9 µM
- GI50 [16]: 7.62 µM
- TGI [16]: 26.8 µM
- GI50 [17]: 4.82 µM
- TGI [17]: > 100 µM
- GI50 [18]: 11.4 µM
- TGI [18]: 26.2 µM
- GI50 [19]: 2.46 µM
- TGI [19]: 9.13 µM
- GI50 [20]: 5.66 µM
- TGI [20]: 32.3 µM
- GI50 [21]: 3.15 µM
- TGI [21]: 12.3 µM
- GI50 [22]: 7.63 µM
- TGI [22]: > 100 µM
- GI50 [23]: 3.05 µM
- TGI [23]: 38.8 µM
- GI50 [24]: 5.73 µM
- TGI [24]: 35.5 µM
- GI50 [25]: 3.1 µM
- TGI [25]: 14.3 µM
- GI50 [26]: 2.81 µM
- TGI [26]: 13.4 µM
- GI50 [27]: 2.63 µM
- TGI [27]: 8.05 µM
- GI50 [28]: 3.89 µM
- TGI [28]: 22.9 µM
- GI50 [29]: 2.01 µM
- TGI [29]: 6.72 µM
- GI50 [30]: 15.4 µM
- TGI [30]: 34.7 µM
- GI50 [31]: 1.85 µM
- TGI [31]: 8.15 µM
- GI50 [32]: 4.21 µM
- TGI [32]: 15.4 µM
- GI50 [33]: 3.77 µM
- TGI [33]: 87.4 µM
- GI50 [34]: 2.73 µM
- TGI [34]: 14.1 µM
- GI50 [35]: 3.02 µM
- TGI [35]: 11.3 µM
- GI50 [36]: 3.79 µM
- TGI [36]: 16.3 µM
- GI50 [37]: 2.43 µM
- TGI [37]: 6.63 µM
- GI50 [38]: 6.38 µM
- TGI [38]: 26.1 µM
- GI50 [39]: 5.41 µM
- TGI [39]: 67.4 µM
- GI50 [40]: 2.58 µM
- TGI [40]: 10.3 µM
- GI50 [41]: 3.01 µM
- TGI [41]: 22.6 µM
- GI50 [42]: 3.33 µM
- TGI [42]: 16.2 µM
- GI50 [43]: 3.39 µM
- TGI [43]: 16 µM
- GI50 [44]: 22.1 µM
- TGI [44]: 76.9 µM
- GI50 [45]: 10.3 µM
- TGI [45]: 26.8 µM
- GI50 [46]: 4.23 µM
- TGI [46]: 46.6 µM
- GI50 [47]: 2.06 µM
- TGI [47]: 4.92 µM
- GI50 [48]: 3.03 µM
- TGI [48]: 25 µM
- GI50 [49]: 2.71 µM
- TGI [49]: 16.1 µM
- GI50 [56]: 2.9 µM
- TGI [56]: 9.3 µM
- GI50 [50]: 5.69 µM
- TGI [50]: 25 µM
- GI50 [57]: 2.54 µM
- TGI [57]: 9.08 µM
- GI50 [58]: 3.08 µM
- TGI [58]: 14.5 µM
- GI50 [51]: 4.43 µM
- TGI [51]: 16.8 µM
- GI50 [52]: 10.7 µM
- TGI [52]: > 100 µM
- GI50 [53]: 2.93 µM
- TGI [53]: 40.3 µM
- GI50 [54]: 2.82 µM
- TGI [54]: > 100 µM
- GI50 [55]: 2.7 µM
- TGI [55]: 13.9 µM
